Measured values: patent publication EP0488965A1, “Phthalidilidene derivatives of carnitine and alkanoylcarnitines and pharmaceutical compositions containing them” (Sigma-Tau Industrie Farmaceutiche Riunite S.p.A., priority 1990, dated 1992)

Experiments:
mice = assay: Observation of behaviour and death rate in mice (Irwin method); assay type: in vivo; conditions: for SYMPTOMS: male mice, 4 animals/dose, n.e. = no effect; for DEATH RATE: mouse, in vivo
Experimental: The observation of normal behaviour in mice was conducted following the method by S. Irwin, Psychopharmacologia 13, 222 ( 1968). This method allows alterations of some behavioural, neurophysiological and neurovegetative parameters directly detectable by the experimenter to be visualized.
The test was conducted in male mice [Crl;(CD-I)(ICR)BR, Charles River - Italy] weighing 22-25 g, following oral administration of the compounds suspended in carboxymethylcellulosa (0.5% by weight in H₂O) to groups of 4 animals/dose.
The animals were kept under continuous observation for five hours following treatment and twice a day for the subsequent five days.
Death rate was also observed during the whole test period. The initial administered dose was 1,000 mg/kg per os; lower doses were administered following death of some animals or after marked effects at the initial dose were dected.

[1] = target: T1, PAF (platelet activating factor) receptors (Oryctolagus cuniculus, UniProt G1TEI7); assay: Binding to PAF receptors (3H-PAF displacement in rabbit platelets); conditions: 50% inhibiting concentration of specific receptor binding, 3H-PAF 0.5 nM, 30 minutes at 25°C
T1 construct: Blood was drawn via indracardiac puncture from male rabbits; from tissue; host or cells: Platelets from the blood of male rabbits (HY/CR strain, Charles River, Italy)
T1 sequence (G1TEI7 1-342): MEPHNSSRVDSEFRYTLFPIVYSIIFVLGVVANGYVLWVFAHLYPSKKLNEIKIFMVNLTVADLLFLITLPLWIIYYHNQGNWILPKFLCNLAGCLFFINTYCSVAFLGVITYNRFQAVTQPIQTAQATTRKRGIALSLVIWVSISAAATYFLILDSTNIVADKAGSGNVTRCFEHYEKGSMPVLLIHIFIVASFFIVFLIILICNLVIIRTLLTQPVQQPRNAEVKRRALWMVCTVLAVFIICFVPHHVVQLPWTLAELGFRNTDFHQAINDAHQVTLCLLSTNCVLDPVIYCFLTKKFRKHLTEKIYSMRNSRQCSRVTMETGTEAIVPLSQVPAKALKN
Experimental: The binding of the compounds under examination to rabbit platelet receptors was studied following the procedure disclosed by D. Nunez et al, Eur J. Pharmacol. 123, 197 (1986).
Blood was drawn via indracardiac puncture from male rabbits (HY/CR strain-Charles River, Italy) weighing 2.5-3.0 Kg.
Blood was diluted (1:9) in a ACD (0.8% citric acid, 2.2% trisodium citrate, 2.45% glucose, weight percentages) solution and centrifuged at 100 x g for 15 minutes.
The precipitate was suspended in the incubation buffer at […] platelet/ml concentration, immediately before binding.
The platelet number and possible erythrocyte contamination was controlled with a platelet counter DELCON CA480.
Platelets were incubated in polyethylene tubes with ³H-PAF (0.5 nM) for 30 minutes at 25°C. The test compounds were added to a volume of 200 µl. The final volume was equal to 500 µl. Incubation was stopped by rapid filtration under vacuum through GF/C filters (WHATMAN) washed with (3x3 ml) cold incubation buffer using a Brondel Cell Harvester filtration system. The filters were counted in 8 mL OptiFluor (Packard) using a TRI-CARB 1900 CA-Packard liquid scintillation spectrometer (about 50% counting efficiency).
The percentage of inhibition of the specific binding receptor-radioligand was calculated for each concentration (mean of incubations in triplicate).
The competition curve, the slope of the curve, and the IC₅₀ value (concentration which inhibits 50% of the specific radioligand-receptor binding) were calculated with the "All fit" program (A. De Lean et al., Am. J. Physiol. 235, E97, 1978) runned in a 55-SX IBM computer.

[2] = test system: PAF-induced platelet aggregation; assay: PAF-induced platelet aggregation in platelet rich plasma; assay type: cell-based, rabbits; conditions: Oryctolagus cuniculus, 2 min, compound 10^-5M, 2 minutes of incubation, rabbit PRP
Experimental: Blood was collected from male rabbits (HY/Charles River, Italy) by heart puncture using a plastic syringe and transferred immediately into plastic tubes containing 3.8% (by weight) solution of sodium citrate (0.1 ml/ml blood).
PRP (Platelet Rich Plasma) was obtained by plasma centrifugation at 145 x g for 5 minutes at 22°C. Platelet number was determined with a CA 580A (Delcon) "platelet counter". The platelet number was adjusted to the fixed value of […] by adding PPP (Platelet Poor Plasma). PPP was obtained by centrifuging blood at 1600 x g for 10 minutes at 22°C.
(§1) Platelet aggregation was determined photometrically (G.V.R. Born, Nature 194, 927; 1962) with an ELVI 840 aggregometer in plastic tubes under continuous stirring at 1000 rpm.
(§2) Maximal light transmission (100% ) was recorded by reading PPP, while 0% transmission was recorded by reading PRP. The PRP aggregation degree induced by the aggregation factor (PAF) was calculated as percentage of maximal light transmittance obtained with PPP using 250 µL samples of PRP.
(§3) The compounds were dissolved in bidistilled water at the concentration of 10⁻⁵ M and tested after 2 minutes of incubation.
(§4) Aggregation inhibition was calculated as percentage of the value obtained in the presence of the aggregating agent only.

[3] = test system: ADP-induced platelet aggregation; assay: ADP-induced platelet aggregation in platelet rich plasma; assay type: cell-based, rats; conditions: 2 min, compound 10^-5M, 2 minutes of incubation, rat PRP
Experimental: as §1, §2, §3, §4
Blood was drawn from the abdominal aorta of male rats (Crl:(WI)BR, Charles River, Italy) under barbiturate anaesthesia and quickly transferred into plastic tubes containing 0.1 mL/mL blood of 3.8% (by weight) solution of sodium citrate. PRP was obtained by plasma centrifugation at 115 x g for 5 minutes at 22°C and PPP by centrifugation at 1600 x g for 10 minutes. The final PRP platelet number was adjusted to the fixed value of […] of PRP by adding PPP.
Platelet count was made with a CA580 A(Delcan) platelet counter. The same procedure outlined in the paragraph "PAF aggregation" was followed for the ADP-induced aggregation.

C[N+](C)(C)C[C@H](O)CC(=O)OC/C=C1\OC(=O)c2ccccc21 [ST 736, (Z)-(3-phtalidylidene)ethyl ester of L-carnitine bromide]
SYMPTOMS (mice; 600 mg/kg per os): n.e.
SYMPTOMS (mice; 1000 mg/kg per os): convulsion, salivation
DEATH RATE (mice; 600 mg/kg): 0/4
DEATH RATE (mice; 1000 mg/kg): 3/4
IC50 [1]: 9300 nM

CC(=O)O[C@H](CC(=O)OC/C=C1\OC(=O)c2ccccc21)C[N+](C)(C)C [ST 739]
SYMPTOMS (mice; 600 mg/kg per os): n.e.
SYMPTOMS (mice; 1000 mg/kg per os): jerks
DEATH RATE (mice; 600 mg/kg): 0/4
DEATH RATE (mice; 1000 mg/kg): 2/4
IC50 [1]: 5300 nM

CCC(=O)O[C@H](CC(=O)OC/C=C1\OC(=O)c2ccccc21)C[N+](C)(C)C [ST 768]
SYMPTOMS (mice; 600 mg/kg per os): n.e.
SYMPTOMS (mice; 1000 mg/kg per os): convulsion, salivation diarrhea, lacrimation
DEATH RATE (mice; 600 mg/kg): 0/4
DEATH RATE (mice; 1000 mg/kg): 1/4
IC50 [1]: 6700 nM

CC(C)C(=O)O[C@H](CC(=O)OC/C=C1\OC(=O)c2ccccc21)C[N+](C)(C)C [ST 775]
SYMPTOMS (mice; 1000 mg/kg per os): n.e.
DEATH RATE (mice; 1000 mg/kg): 0/4
IC50 [1]: 2000 nM

CC(C)CC(=O)O[C@H](CC(=O)OC/C=C1\OC(=O)c2ccccc21)C[N+](C)(C)C [ST 776]
inhibition at 10 µM [2]: 100%
inhibition at 10 µM [3]: 5%
SYMPTOMS (mice; 600 mg/kg per os): n.e.
SYMPTOMS (mice; 1000 mg/kg per os): convulsion, salivation
DEATH RATE (mice; 600 mg/kg): 0/4
DEATH RATE (mice; 1000 mg/kg): 2/4
IC50 [1]: 3600 nM

C[N+](C)(C)C[C@H](O)CC(=O)OC/C=C1\OC(=O)c2cc(Cl)ccc21 [ST 801]
inhibition at 10 µM [2]: 97%
inhibition at 10 µM [3]: 7%
SYMPTOMS (mice; 1000 mg/kg per os): salivation
DEATH RATE (mice; 1000 mg/kg): 0/4
IC50 [1]: 20 nM

CC(C)CC(=O)O[C@H](CC(=O)OC/C=C1\OC(=O)c2cc(Cl)ccc21)C[N+](C)(C)C [ST 803]
inhibition at 10 µM [2]: 72%
inhibition at 10 µM [3]: 8%
SYMPTOMS (mice; 1000 mg/kg per os): diarrhea
DEATH RATE (mice; 1000 mg/kg): 0/4
IC50 [1]: 6.6 nM

CC(=O)O[C@H](CC(=O)OC/C=C1\OC(=O)c2cc(Cl)ccc21)C[N+](C)(C)C [ST 804]
inhibition at 10 µM [2]: 96%
inhibition at 10 µM [3]: 13%
SYMPTOMS (mice; 600 mg/kg per os): salivation
SYMPTOMS (mice; 1000 mg/kg per os): salivation
DEATH RATE (mice; 600 mg/kg): 0/4
DEATH RATE (mice; 1000 mg/kg): 1/4
IC50 [1]: 19 nM

CCC(=O)O[C@H](CC(=O)OC/C=C1\OC(=O)c2cc(Cl)ccc21)C[N+](C)(C)C [ST 805]
inhibition at 10 µM [2]: 40%
inhibition at 10 µM [3]: 10%
SYMPTOMS (mice; 600 mg/kg per os): salivation
SYMPTOMS (mice; 1000 mg/kg per os): salivation
DEATH RATE (mice; 600 mg/kg): 0/4
DEATH RATE (mice; 1000 mg/kg): 1/4
IC50 [1]: 22 nM

CC(C)C(=O)O[C@H](CC(=O)OC/C=C1\OC(=O)c2cc(Cl)ccc21)C[N+](C)(C)C [ST 806]
inhibition at 10 µM [2]: 95%
inhibition at 10 µM [3]: 18%
SYMPTOMS (mice; 600 mg/kg per os): salivation
SYMPTOMS (mice; 1000 mg/kg per os): salivation
DEATH RATE (mice; 600 mg/kg): 0/4
DEATH RATE (mice; 1000 mg/kg): 1/4
IC50 [1]: 18 nM
